Test [1] has as its target T1, full-length human FXR (Homo sapiens, UniProt Q96RI1).
T1 construct: coding for the full‐length human nuclear receptors FXR and RXRα; expressed in transfected cells; host or cells: HeLa
T1 sequence (Q96RI1 1-486): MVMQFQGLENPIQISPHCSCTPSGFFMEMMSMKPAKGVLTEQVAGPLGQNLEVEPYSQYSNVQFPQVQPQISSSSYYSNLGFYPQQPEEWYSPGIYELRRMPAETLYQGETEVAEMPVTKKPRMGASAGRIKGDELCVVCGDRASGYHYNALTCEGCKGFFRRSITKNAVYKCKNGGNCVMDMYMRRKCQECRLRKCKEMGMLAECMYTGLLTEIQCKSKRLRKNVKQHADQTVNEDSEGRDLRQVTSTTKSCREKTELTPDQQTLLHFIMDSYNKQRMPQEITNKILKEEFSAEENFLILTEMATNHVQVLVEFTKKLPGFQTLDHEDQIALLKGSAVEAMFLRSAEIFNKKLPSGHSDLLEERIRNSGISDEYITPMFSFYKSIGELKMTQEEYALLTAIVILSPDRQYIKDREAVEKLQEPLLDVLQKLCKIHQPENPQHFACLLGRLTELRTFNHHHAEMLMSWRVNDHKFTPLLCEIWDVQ
T1 sequence (P19793 1-462 partner): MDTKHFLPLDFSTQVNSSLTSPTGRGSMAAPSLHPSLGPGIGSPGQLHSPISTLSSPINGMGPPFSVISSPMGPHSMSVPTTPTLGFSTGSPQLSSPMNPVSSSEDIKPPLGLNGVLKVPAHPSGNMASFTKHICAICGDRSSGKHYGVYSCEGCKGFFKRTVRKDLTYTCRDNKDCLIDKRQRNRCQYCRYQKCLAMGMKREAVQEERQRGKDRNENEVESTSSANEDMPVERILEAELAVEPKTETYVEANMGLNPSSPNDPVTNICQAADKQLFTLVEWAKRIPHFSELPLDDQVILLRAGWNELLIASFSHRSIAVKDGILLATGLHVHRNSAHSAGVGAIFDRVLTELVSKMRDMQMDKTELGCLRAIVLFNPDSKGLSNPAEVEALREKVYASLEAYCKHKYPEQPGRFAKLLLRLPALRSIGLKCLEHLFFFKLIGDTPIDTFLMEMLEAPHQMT
Kind of test: Full-length FXR:RXR reporter gene assay (BSEP promoter, HeLa, transiently transfected). The test is classed as cell-based. The settings on record: mean±S.E.M., n≥3; for EC50: full-length FXR reporter gene assay, BSEP promoter, HeLa; for FXR efficacy (maximum FXR activation relative to 3 μM GW4064): 3 μM GW4064 = 100 % activation. On the procedure:
Full‐length FXR:RXR reporter gene assay. HeLa cells were grown in DMEM high glucose supplemented with 10 % FCS, sodium pyruvate (1 mM), penicillin (100 U/mL) and streptomycin (100 μg/mL) at 37 °C and 5 % CO2 and seeded in 96‐well plates 24 h before transfection with a density of 8000 cells per well. 3.5 h before transfection, medium was changed to DMEM high glucose, supplemented with sodium pyruvate (1 mM), penicillin (100 U/mL), streptomycin (100 μg/mL) and 0.5 % charcoal‐stripped FCS. Cells were then transiently transfected with using the calcium phosphate transfection method with pGL3basic‐BSEP[26, 27] (containing a shortened construct of the promotor of the bile salt export protein (BSEP) cloned into the SacI/NheI cleavage site in front of the luciferase gene), pcDNA3‐hFXR[26] and pSG5‐hRXR[38] coding for the full‐length human nuclear receptors FXR and RXRα, and pRL‐SV40 (Promega) for normalization of transfection efficiency and cell growth. 16 h after transfection, medium was changed to DMEM high glucose, supplemented with sodium pyruvate (1 mM), penicillin (100 U/mL), streptomycin (100 μg/mL) and 0.5 % charcoal‐stripped FCS. 24 h after transfection, medium was changed to DMEM without phenol red, supplemented with sodium pyruvate (1 mM), penicillin (100 U/mL), streptomycin (100 μg/mL), L‐glutamine (2 mM) and 0.5 % charcoal‐stripped FCS, now additionally containing 0.1 % DMSO and the respective test compound or 0.1 % DMSO alone as untreated control. Each sample was tested in triplicate wells and each experiment was repeated independently at least three times. Following 24 h incubation with the test compounds, cells were assayed for luciferase activity using Dual‐Glo Luciferase Assay System (Promega) according to the manufacturer's protocol. Luminescence was measured with a Tecan Spark M luminometer (Tecan). Normalization of transfection efficiency and cell growth was done by division of firefly luciferase data by Renilla luciferase data multiplied by 1000 resulting in relative light units (RLU). Fold activation was obtained by dividing the mean RLU of the tested compound at a respective concentration by the mean RLU of untreated control. EC50 and standard error of the mean values were calculated with the mean fold activation values of at least three independent experiments with SigmaPlot 10.0 (Systat Software GmbH, Erkrath, Germany) using a four‐parameter logistic regression.
(In a reporter assay the amount or activity of a reporter protein is the signal.)

Test [2] deals with T2, recombinant human LTA4H (Homo sapiens, UniProt P09960).
T2 sequence (P09960 1-611): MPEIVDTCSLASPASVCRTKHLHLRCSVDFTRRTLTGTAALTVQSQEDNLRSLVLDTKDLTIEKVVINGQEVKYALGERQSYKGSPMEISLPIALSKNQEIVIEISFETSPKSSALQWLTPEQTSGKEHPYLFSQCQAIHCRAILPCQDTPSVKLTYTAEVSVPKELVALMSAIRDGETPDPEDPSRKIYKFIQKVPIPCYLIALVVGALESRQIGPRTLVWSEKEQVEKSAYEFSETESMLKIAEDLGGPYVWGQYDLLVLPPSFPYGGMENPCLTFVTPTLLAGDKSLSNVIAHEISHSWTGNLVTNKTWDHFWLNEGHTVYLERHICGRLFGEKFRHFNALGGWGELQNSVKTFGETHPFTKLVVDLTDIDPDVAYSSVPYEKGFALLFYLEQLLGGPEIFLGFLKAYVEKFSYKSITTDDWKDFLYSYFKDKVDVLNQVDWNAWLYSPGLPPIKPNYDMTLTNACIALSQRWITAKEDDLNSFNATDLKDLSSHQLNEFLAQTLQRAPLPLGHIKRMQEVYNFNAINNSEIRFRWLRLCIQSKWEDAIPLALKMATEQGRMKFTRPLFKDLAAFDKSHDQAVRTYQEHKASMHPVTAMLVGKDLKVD
To be noted: for LTA4H max. inhib.: LTA4H inhibition at the highest tested concentration (up to 100 μM), mean±S.E.M., n=3.
Description: FXR modulation by 3–20 was characterized in a cellular (HeLa, transiently transfected) full‐length FXR reporter gene assay employing the human FXR response element from the promoter region of bile salt export protein (BSEP) to govern firefly luciferase expression as reporter gene.[26, 27] FXR and its natural heterodimer partner retinoid X receptor (RXR) were constitutively over‐expressed and a constitutively expressed renilla luciferase was present as internal control for transfection efficiency and cellular health.
LTA4H assay. […] The assay was performed in black polystyrol 96‐well plates in a final volume of 100 μL. Test compound solution in DMSO (1 μL) or DMSO alone as control were incubated with 89 μl protein mixture (containing LTA4H, buffer and Triton‐X‐100). After 30 min, 10 μl of substrate mixture (containing L‐arginin‐7‐amido‐4‐methylcumarine and DMSO in buffer) were added. […] A blank measurement containing no protein was performed and treated as 0 % conversion control. All samples were measured in triplicates and each experiment was conducted in three independent repeats.

Test [3] deals with T1, full-length human FXR. The settings on record: mean±S.E.M., n≥3, previously reported, cited from earlier work; for FXR efficacy (maximum FXR activation relative to 3 μM GW4064): 3 μM GW4064 = 100 % activation; for EC50 / EC50(FXR): full-length FXR reporter gene assay, BSEP promoter, HeLa.

Several values for one entry are separate records, joined by “and”; a condition that tells them apart may be missing. Identical values can stand only once. Like-named read-outs stand apart in the source and are kept apart here. Where only a bound is given, the exact number is not on record here.

`O=C(O)Cc1cccc(NC(=O)c2ccc(OCCCc3ccccc3)cc2)c1` [compound 17]: the EC50 in test [1] was over 30000 nM. Further, in test [2], the 50% inhibitory concentration (IC50) is 1900 ± 100 nM and the LTA4H max. inhib. turned out to be 97.0±0.2%.
In the case of `COc1c(NC(=O)c2ccc(OCCCCc3ccccc3)cc2)cccc1C(=O)O` [compound 6], in test [2], the IC50 was found to be 5500 ± 500 nM and the LTA4H max. inhib. was 85±2%. Besides, in test [3], the “FXR efficacy (maximum FXR activation relative to 3 μM GW4064)” value is given as 26±1% and the EC50 is 190 ± 20 nM.
`O=C(O)c1cccc(NC(=O)c2ccc(Oc3ccccc3)cc2)c1` [compound 11]: in test [2], the IC50 is 550 ± 60 nM and the LTA4H max. inhib. is 98.2±0.1%. In addition, in test [3], the “FXR efficacy (maximum FXR activation relative to 3 μM GW4064)” value was 35±1% and the EC50 is 1 ± 0.3 nM.
Take `O=C(Nc1ccnc(C(=O)O)c1)c1ccc(Oc2ccccc2)cc1` [compound 14]: in test [2], the IC50 was 950 ± 10 nM and the LTA4H max. inhib. amounted to 97.9±0.1%.
For `O=C(Nc1cccc2c(=O)cc(C(=O)O)oc12)c1ccc(OCCCCc2ccccc2)cc1` [compound 5], in test [2], the half-inhibitory concentration (IC50) is 15000 ± 2000 nM and the LTA4H max. inhib. is given as 80±5%. Further, the “EC50(FXR)” value in test [3] is “inactive (50 μM)”.
In the case of `O=C(Nc1nc(C(=O)O)co1)c1ccc(OCCCc2ccccc2)cc1` [compound 20], in test [1], the “FXR efficacy (maximum FXR activation relative to 3 μM GW4064)” value was 30±1% and a half-maximal response (EC50) required 11000 ± 2000 nM. Moreover, in test [2], the LTA4H max. inhib. worked out at 99.7±0.1%.
For `O=C(Nc1cccc(C(=O)O)n1)c1ccc(Oc2ccccc2)cc1` [compound 13], in test [2], the IC50 amounted to 280 ± 20 nM and the LTA4H max. inhib. is 90.8±0.3%. For the same compound, the “EC50(FXR)” value in test [3] is “antagonist”.
On to `O=C(Nc1cccc2c(=O)cc(-c3nnn[nH]3)oc12)c1ccc(OCCCCc2ccccc2)cc1` [compound 4, pranlukast, reference compound], for which, in test [2], the IC50 worked out at 1600 ± 200 nM and the LTA4H max. inhib. turned out to be 82.6±0.8%.
Regarding `O=C(O)c1cccc(NC(=O)c2ccc(OCCc3ccccc3)cc2)c1` [compound 9], in test [2], the IC50 turned out to be 610 ± 60 nM and the LTA4H max. inhib. was 96.0±0.2%. Further, in test [3], the “FXR efficacy (maximum FXR activation relative to 3 μM GW4064)” value is 56±1% and the EC50 was 150 ± 20 nM.
`O=C(O)c1cccc(NC(=O)c2ccc(OCc3ccccc3)cc2)c1` [compound 10]: in test [2], the IC50 stood at 1100 ± 100 nM and the LTA4H max. inhib. stood at 94.9±0.2%. Further, the “FXR efficacy (maximum FXR activation relative to 3 μM GW4064)” value in test [3] is recorded as 20±1%.
Take `O=C(O)c1ccc(NC(=O)c2ccc(OCCCc3ccccc3)cc2)cc1` [compound 16]: in test [2], the IC50 was determined as 200 ± 20 nM and the LTA4H max. inhib. was found to be 98.8±0.1%.
Regarding `O=C(O)c1ccc(NC(=O)c2ccc(OCCCCc3ccccc3)cc2)cc1` [compound 7], in test [2], the IC50 stood at 370 ± 20 nM and the LTA4H max. inhib. is 97.8±0.1%. In test [3], the “FXR efficacy (maximum FXR activation relative to 3 μM GW4064)” value is listed as 29±1% and the EC50 is 14 ± 1 nM.
As for `O=C(O)c1ccnc(NC(=O)c2ccc(Oc3ccccc3)cc2)c1` [compound 15], in test [2], the IC50 stood at 2100 ± 100 nM and the LTA4H max. inhib. stood at 89.6±0.6%. Also, in test [3], the “FXR efficacy (maximum FXR activation relative to 3 μM GW4064)” value is recorded as 56±1% and the EC50 is 70 ± 20 nM.
For the compound `CS(=O)(=O)Nc1cccc(NC(=O)c2ccc(OCCCc3ccccc3)cc2)c1` [compound 18], in test [1], the “FXR efficacy (maximum FXR activation relative to 3 μM GW4064)” value is 35±2% and the EC50 is 1600 ± 400 nM. Besides, in test [2], the IC50 came out at 130 ± 10 nM and the LTA4H max. inhib. is recorded as 89.5±0.5%.
On to `O=C(O)c1cccc(NC(=O)c2ccc(OCCCCc3ccccc3)cc2)c1` [compound 3], for which, in test [2], the IC50 turned out to be 540 ± 70 nM and the LTA4H max. inhib. came out at 97.2±0.4%. The “FXR efficacy (maximum FXR activation relative to 3 μM GW4064)” value in test [3] was 34% and 34±1%.
As to `O=C(O)c1cccc(NC(=O)c2ccc(Oc3cccc(-c4ccccc4)c3)cc2)c1` [compound 12], in test [1], the “FXR efficacy (maximum FXR activation relative to 3 μM GW4064)” value was 14% and 14±1%; the EC50 was 300 ± 100 nM. In test [2], the IC50 turned out to be 5200 ± 600 nM and the LTA4H max. inhib. is reported as 81.1±0.6%.

By EC50 is commonly meant the concentration needed to bring the measured effect to its halfway point. One may read the IC50 as the point on the concentration scale where inhibition reaches its midpoint.
